pIC50: −log10 of the molar value.

Experiment [1] is described as follows: Antiproliferative activity against murine BaF3 cell line expressing NPM-ALK.
Experiment [2] in a line: Antiproliferative activity against human NPM-ALK positive anaplastic large cell lymphoma karpas299 cell line.

By pIC50 is commonly meant the negative decadic logarithm of the IC50, by convention in mol/L. `CN1CCN(Cc2ccc(NC(=O)c3cc(-c4ccc5c(c4)OCO5)c[nH]c3=O)cc2)CC1` [5-benzo[1,3]dioxol-5-yl-2-oxo-1,2-dihydro-pyridine-3-carboxylic acid [4-(4-methyl-piperazin-1-ylmethyl)-phenyl]-amide]: the negative-log IC50 (pIC50) in experiment [1] is less than 4.60; in experiment [2], 4.95.
In turn, `CN1CCN(CCc2ccc(NC(=O)c3cc(-c4ccc5c(c4)OCO5)c[nH]c3=O)cc2)CC1` [5-benzo[1,3]dioxol-5-yl-2-oxo-1,2-dihydro-pyridine-3-carboxylic acid {4-[2-(4-methyl-piperazin-1-yl)-ethyl]-phenyl}-amide] showed a pIC50 in experiment [2] of 5.12.
In turn, `CN1CCN(CCCc2ccc(NC(=O)c3cc(-c4ccc5c(c4)OCO5)c[nH]c3=O)cc2)CC1` [5-benzo[1,3]dioxol-5-yl-2-oxo-1,2-dihydro-pyridine-3-carboxylic acid {4-[3-(4-methyl-piperazin-1-yl)-propyl]-phenyl}-amide] gave a negative-log IC50 (pIC50) in experiment [1] of 4.86.
